In patent US20120156150A1, “Composition for Improving Skin Condition Comprising Extract from Black Tea as Active Ingredient” (Keimyung University Industry Academic Cooperation Foundation, priority 2010, published 2012):
Marks after values point to notes of the source that are not given here. Each block holds one compound with its values, some of them ahead of it.

Columns and labels:
[1] = Electron donating ability (DPPH radical scavenging, Blois' method)
Description: DPPH radical scavenging effect was measuring according to the Blois' method (1958). […] After adding 1 mL of the test sample in a test tube, 4×10^−4 M DPPH (4 mL) was added. The resulting mixture was shaken vigorously, allowed to stand in warm water of 60° C. for 10 seconds, and absorbance was measured at 525 nm. BHT was used as the positive control group. Then, free radical scavenging activity of each solution was calculated as “% inhibition” according to the following equation: % inhibition=[1−(Asample/Ablank)]×100, wherein Ab1ank is the absorbance of the control group (excluding the test sample) and Asample is the absorbance of the test compound.

[2] = system: Melan-a cells; experiment: MTT assay, viability of Melan-a cells; format: cell-based, mouse
Description: (§1) Melan-a cells were purchased from Dr. Dorothy Bennett (St. George's Hospital, UK). Immortalized Melan-a cells with high pigment content are derived from C57BL/6 mouse. The cells were cultured using Roswell Park Memorial Institute (RPMI)-1640 medium containing 10% fetal bovine serum (FBS), 1% penicillin/streptomycin (P/S) and 200 nM 12-O-tetradecanoylphorbol 13-acetate (TPA) in a 10% CO2 incubator at 37° C. for 72 hours.
Melan-a cells were seeded on a 96-well plate (0.5×10^4 cells/well) and cultured in a 10% CO2 incubator at 37° C. for 24 hours. After adding 200 μL of AT, KA, EGCG, GT, WT or BT diluted to various concentrations (3.125, 6.25, 12.5, 25 and 50 μg/mL) using RPMI-1640 medium to the wells, the cells were cultured in a 10% CO2 incubator at 37° C. for 48 hours. Then, the cells were cultured in a medium containing […] in a 10% CO2 incubator at 37° C. for 3 hours. Subsequently, after settling the cells by centrifuging the plate at 1,000 rpm for 10 minutes, the medium was removed. Then, 200 μL of DMSO was added and the cells were suspended for 15 minutes in a plate shaker. Absorbance was measured at 540 nm using an ELISA reader. Cell viability (%) was calculated according to the following equation: % cell viability=(Asample/Ablank)×100, wherein Ablank is the absorbance of the control group (excluding the test sample) and Asample is the absorbance of the test compound.

[3] = target: T1, tyrosinase (Mus musculus, UniProt P11344); experiment: Cell-extracted tyrosinase activity of Melan-a cells; format: biochemical; details: 12.5 μg/mL, compared with the control group
T1 construct: endogenous in cells; host or cells: Melan-a cells
T1 sequence (P11344 19-533): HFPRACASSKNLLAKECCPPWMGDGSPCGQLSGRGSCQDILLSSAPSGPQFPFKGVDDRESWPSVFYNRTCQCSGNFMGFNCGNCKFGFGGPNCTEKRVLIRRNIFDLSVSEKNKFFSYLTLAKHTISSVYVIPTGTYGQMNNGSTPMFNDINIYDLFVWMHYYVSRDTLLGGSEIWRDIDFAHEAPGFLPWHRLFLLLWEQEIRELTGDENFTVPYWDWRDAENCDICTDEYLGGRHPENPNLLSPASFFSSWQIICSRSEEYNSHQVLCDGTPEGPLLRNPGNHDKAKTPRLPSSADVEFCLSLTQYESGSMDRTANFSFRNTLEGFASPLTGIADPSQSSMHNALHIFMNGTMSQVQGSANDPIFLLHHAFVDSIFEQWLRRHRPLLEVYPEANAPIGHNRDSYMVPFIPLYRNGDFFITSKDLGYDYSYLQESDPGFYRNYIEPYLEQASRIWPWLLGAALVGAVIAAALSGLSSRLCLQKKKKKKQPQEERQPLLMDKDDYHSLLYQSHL
Description: (§2) Melan-a cells were seeded on a 60 φ cell culture dish (4×10^5 cells/well) and cultured in a 10% CO2 incubator at 37° C. for 72 hours. After washing with PBS, the cells were suspended by adding 200 μL of 1% triton X-100 to the culture dish, transferred to an e-tube, and fixed on ice. 60 minutes later, after shaking for 2-3 seconds, the cells were centrifuged at 4° C. and 14,000 rpm for 20 minutes to obtain 50 μL of protein, which was mixed with 49 μL of 0.1 M phosphate buffer (pH 6.8) and 1 μL of AT, EGCG, GT, WT or BT (1.563, 3.125, 6.25 or 12.5 μg/mL). After allowing the mixture to stand for 1 hour and adding 100 μL of L-DOPA, the mixture was incubated in a 10% CO2 incubator at 37° C. for 1 hour. Absorbance was measured at 490 nm using an ELISA reader. Tyrosinase activity was calculated according to the following equation: % inhibition=[1−(Asample/Ablank)]×100, wherein Ablank is the absorbance of the control group (excluding the test sample) and Asample is the absorbance of the test compound.

[4] = system: Melan-a cells; experiment: Melanin analysis in Melan-a cells; format: cell-based, mouse; details: 12.5 μg/mL, compared with the control group
Description: as §1
Melan-a cells were seeded on a 96-well plate (2×10^4 cells/well) and cultured in a 10% CO2 incubator at 37° C. for 24 hours. Then, after adding 200 μL of AT, KA, EGCG, GT, WT or BT diluted to various concentrations (1.563, 3.125, 6.25 and 12.5 μg/mL) using RPMI-1640 medium to the wells, the cells were cultured in a 10% CO2 incubator at 37° C. for 72 hours, and then washed. This procedure was repeated several times. After dissolving Melanin with 1N NaOH, absorbance was measured at 490 nm using an ELISA reader. Melanin content (%) was calculated according to the following equation: % melanin content=(Asample/Ablank)×100, wherein Ablank is the absorbance of the control group (excluding the test sample) and Asample is the absorbance of the test compound.

[5] = system: tyrosinase; experiment: Western blotting, expression of tyrosinase protein in Melan-a cells; format: cell-based, mouse
Description: Protein concentration in the cell lysate was measured using the Pierce protein assay kit (Pierce Biotechnology, Inc., Rockford, USA), using BSA as standard. After adding same quantity of protein ([…]) on each lane, the proteins were separated by electrophoresis on 10% polyacrylamide gel. After transblotting onto nitrocellulose membrane, the membrane was incubated with PEP7 (1:10000 dilution, anti-tyrosinase antibody), PEP1 (1:10000 dilution, anti-TRP1 antibody) and PEP8 (1:10000 dilution, anti-TRP2 antibody). Then, the membrane was incubated with horseradish peroxidase-conjugated anti-rabbit IgG (1:1000 dilution; Amersham, Bucks, UK). Immunoreactive bands were detected by chemiluminescence using the ECL western blotting detector (Amersham, Bucks, UK). Band intensity was measured using the ImageJ program (NIH, Bethesda, USA). β-actin was used as internal control group for the immunoblotting.

[6] = target: T1, tyrosinase; experiment: Intracellular tyrosinase activity of Melan-a cells; format: biochemical; details: 12.5 μg/mL, compared with the control group
Description: as §2, with “for 24” for “for 72”, “and Asampie” for “and Asample”

[7] = system: UVB-induced hyperpigmentation; experiment: Melanin index (mexameter), brown guinea pig; format: in vivo; details: 2% sample topical
Description: Three brown guinea pigs weighing 450-550 g were purchased from Oriental Yeast Co. Ltd. (OYC; Japan). The animals were accustomed to the test environment for 7 days. The animals were housed in individual cages under the environment of 22±1° C. and 50±5% relative humidity with 12-hour alternate dark/light cycles. Feed and water were given ad libitum.
UVB-induced hyperpigmentation was elicited on the back of the brown guinea pig according to the method of Choi et al. (2004). After anesthetizing the guinea pig with ketamine hydrochloride (100 mg/kg BW), 24 separate areas (φ 12 mm) on the skin of the back was exposed to UVB radiation (302-nm sunlamp). The areas were exposed to UVB of 500 mJ/cm^2 for 3 consecutive weeks, once a week. That is, a total of 1,500 mJ/cm^2 of UVB was radiated.
On day 10 after the final UVB radiation, 30 μL (1.06 mg/cm^2/day) of 2% HQ, EGCG, GT, WT or BT was topically applied for 4 weeks to the hyperpigmented areas (9 areas per each) using a micropipette, twice a day, and 4 days a week. Saline was used as control, and propylene glycol:ethanol:water (5:3:2) was used as vehicle control.
Before and after the topical application of the test sample, change in melanin pigmentation was measured 3 times in a non-invasive manner using a mexameter, once a week. The degree of pigmentation was analyzed by averaging the measured values.

[8] = system: melanin pigmentation in the epithelium; experiment: Fontana-Masson's silver staining, melanin-pigmented area; format: in vivo, brown guinea pig; details: week 4; 2% sample
Description: In order to observe the morphological change of the skin tissue using an optical microscope, the extracted skin tissue was fixed in a 10% neutral formalin solution for 12 hours and washed with flowing water. After dehydrating in 70, 80, 95 and 100% ethanol followed by washing with xylene, the tissue was embedded in paraffin and 4 μm-thick samples were prepared using a microtome.
Paraffin was removed from the sample using xylene. After staining the sample for 60 minutes in silver nitrate solution at 56° C. according to the Masson's method (1928), followed by washing, color-toning 0.2% gold chloride solution and washing again, the sample was kept in 5% sodium thiosulfate solution for 5 minutes. Subsequently, after washing the sample once again, followed by counterstaining in nuclear fast red solution, dehydration in 95%, 95%, 100% and 100% alcohol and washing with xylene, the sample was put in Canada balsam for microscopic observation. The percentage of the melanin-pigmented area was calculated using an image analysis software.

[9] = system: gp100 protein; experiment: Immunohistochemical HMB-45 staining (gp100); format: in vivo, brown guinea pig; details: week 4; 2% sample
Description: (§3) After dehydration, followed by washing with xylene and embedding in paraffin, 4 μm-thick samples were prepared. The sample was adhered on a coating slide and stained using the BenchMark XT automated immunostainer (Ventana Medical Systems, USA) after removing paraffin. […] Following reaction with S-100 and HMB-45 primary antibodies diluted to 1:100, the sample was washed with reaction buffer, reacted with biotin for 20 minutes, and then reacted with streptavidin for 25 minutes. After coloring with diaminobenzidine (DAB) using the Ventana detection kit), the sample was stained for observation using an optical microscope.

[10] = system: S-100 protein; experiment: Immunohistochemical S-100 staining; format: in vivo, brown guinea pig; details: week 4; 2% sample
Description: as §3

SMILES: Cc1cc(C(C)(C)C)c(O)c(C(C)(C)C)c1 [BHT, 2,6-di-tert-butyl-4-methylphenol]
Electron donating ability ([1]; 800 μg/mL): 89% | Electron donating ability ([1]; 1,000 μg/mL): 55%

tyrosinase activity in cell extract (decreased) by [3]: 13% | intracellular tyrosinase activity decreased by [6]: 12%
SMILES: OC[C@H]1O[C@@H](Oc2ccc(O)cc2)[C@H](O)[C@@H](O)[C@@H]1O [AT, arbutin]
maximum permissible level (MPL) ([2]; mouse, 48 h): exceeds 50 μg/mL | melanin content decreased by [4]: 18% | expression of tyrosinase protein [5]: no significant decrease | Electron donating ability ([1]; 800 μg/mL): 44%

tyrosinase activity in cell extract (decreased) by [3]: 18% | intracellular tyrosinase activity decreased by [6]: 61%
SMILES: O=C(O[C@@H]1Cc2c(O)cc(O)cc2O[C@@H]1c1cc(O)c(O)c(O)c1)c1cc(O)c(O)c(O)c1 [EGCG, epigallocatechin gallate]
melanin index ([7]; week 0): 723.5 ± 11.3^a AU | melanin index ([7]; week 1): 704.1 ± 12.5^a* AU | melanin index ([7]; week 2): 675.9 ± 12.4^c AU | melanin index ([7]; week 3): 636.6 ± 12.2^b AU | melanin index ([7]; week 4): 582.9 ± 12.8^b AU | melanin index decreased by, as compared to the group C ([7]; week 4): 17% | maximum permissible level (MPL) ([2]; Melan-a cells): 12.5 µg/mL | % of melanin pigment [8]: 10.5 ± 2.0^c % | Melanin pigment area [8]: 1174 ± 189 μm^2 | melanin pigmented area decreased by, as compared to the control group [8]: 48% | % of Melanin pigment (Table 5, gp 100 protein) [9]: 5.3 ± 0.8^c % | Melanin pigment (area; Table 5, gp 100 protein) [9]: 600 ± 107 μm^2 | area of gp 100 protein expression, decrease by, as compared to the group C [9]: 61% | % of S-100 Protein [10]: 5.3 ± 0.7^bc % | S-100 Protein area [10]: 611 ± 81 μm^2 | area of S-100 protein expression, decrease by, as compared to the control groups [10]: 62% | melanin content decreased by [4]: 29% | Electron donating ability ([1]; 800 μg/mL): 94%

SMILES: O=c1cc(CO)occ1O [KA, kojic acid]
maximum permissible level (MPL) ([2]; mouse, 48 h): exceeds 50 μg/mL | melanin content decreased by [4]: 7% | Electron donating ability ([1]; 800 μg/mL): 19%
